Like-named read-outs stand apart in the source and are kept apart here.
How the values were obtained:
[1] = system: P. falciparum stage V gametocytes; assay: Gametocytocidal ATP bioluminescence assay (single point 5 μM and 1 μM, dose-response); assay type: cell-based, Plasmodium falciparum; conditions: for Ratio IC50 HepG2/IC50 P. falciparum: IC50 HepG2 divided by IC50 P. falciparum gametocytes; for % Inhibition: 5 μM single concentration, 48 h, decrease of ATP level (S1 Table)
Description: Purified stage IV-V gametocytes were obtained as previously described [10]. Single point ATP bioluminescence assay and dose–response of positive hits was determined in accordance with the previously published protocol [10].

[2] = system: P. falciparum asexual stages; conditions: asexual stages; TCAMS data; read-out: IC50 asexual; cited from earlier work
[3] = Cytotoxicity in HepG2 cells (intracellular ATP, ATPlite, 48 h); assay type: cell-based, human; conditions: human, HepG2 cells, IC50 per ratio column head, unit inferred; for IC50 at 48 h: read-out: Cytotoxicity in HepG2
Description: (§1) Cells were grown and maintained in EMEM (Sigma-Aldrich) supplemented with 2mM L-glutamine (Sigma-Aldrich) and 10% fetal calf serum (Perbio). […] Passages were routinely made upon reaching 80–90% confluence. For cytotoxicity experiments, cells were seeded onto 96-well clear bottom black plates coated with type I collagen (Biocoat, Becton Dickinson) at a cell density of 20,000 cells/well.
(§2) To determine cytotoxic effects, represented by the Tox50 value (the concentration of drug that reduces cell viability by 50%), cells were exposed to serial dilutions of compounds for 48 h at 37°C. The assay medium was as previously described, but supplemented with 5% fetal calf serum instead of 10%. […] In the presence of ATP, luminescence is emitted as the reaction described earlier for the BacTiter-Glo kit. Percentages of inhibition were calculated relative to vehicle control wells.

HepG2 cells = assay: as above; assay type: cell-based, human; conditions: for Ratio IC50 HepG2/IC50 P. falciparum: IC50 HepG2 divided by IC50 P. falciparum gametocytes; for IC50: HepG2 cells, IC50 per ratio column head, unit inferred
Description: as §1, §2

[4] = system: P. falciparum stage V gametocytes; assay: microbe, parasite or virus in culture; parameters: BacTiter-Glo ATP luminescence viability of purified stage V gametocytes in 384-well plates, per cent inhibition versus DMSO; conditions: Plasmodium falciparum, 48 h, read-out: % Inhibition
[5] = Plasmodium falciparum, P. falciparum gametocytes, average, read-out: IC50 Pf Gametocytes average, IC50 (µM) average
[6] = sexual stages (gametocytes), dose-response, read-out: IC50 sexual
[7] = Plasmodium falciparum, read-out: IC50 Pf Gametocytes average, IC50 (µM) average
[8] = P. falciparum gametocytes, average, read-out: IC50 Pf Gametocytes average, IC50 (µM) average

SMILES | Ratio IC50 HepG2/IC50 P. falciparum [1] | IC50 [1, 5] | IC50 [2] | IC50 at 48 h [3] | inhibition at 5 µM [4] | further results
COc1cc(CCNC(=N)/C=C/c2ccc(Cl)cc2)ccc1Cl [TCMDC-137457] | 50 | 0.28 µM | 241 nM | 14000 nM |  | Ratio IC50 HepG2/IC50 P. falciparum (HepG2 cells): 50
c1cc(C2=N[C@H]3CCCC[C@@H]3N2)ccc1OCCCOc1ccc(C2=N[C@@H]3CCCC[C@H]3N2)cc1 [TCMDC-137803] | >54 | 0.47 µM | 731 nM | > 25000 nM |  | IC50 [1, 6]: 0.467 µM; Ratio IC50 HepG2/IC50 P. falciparum (HepG2 cells): >54
Cl.c1ccc2c(Nc3ccc(Cc4ccc(Nc5c6ccccc6nc6ccccc56)cc4)cc3)c3ccccc3nc2c1 [TCMDC-137354] | 2 | 2.3 µM | 162 nM | 4490 nM |  | 
S=C(NN=Cc1ccccn1)NC1CC2C=CC1C2 (centres unmarked) [TCMDC-125752] | 6 | 0.11 µM | 721 nM | 700 nM |  | IC50 [1, 6]: 0.112 µM
COc1cc2nc(NCCCN3CCCCC3)nc(NCc3ccccc3)c2cc1OC [TCMDC-132012] | 30 | 0.3 µM | 998 nM | 8940 nM |  | IC50 [1, 6]: 0.297 µM
CC(CNC(=N)c1cccc(C(=N)NCC(C)Oc2cccc(C3CCCCC3)c2)n1)Oc1cccc(C2CCCCC2)c1.Cl (centres unmarked) [TCMDC-137455] | 15 | 0.24 µM | 917 nM | 3530 nM |  | 
C=C[C@H]1CN(CCCCCCC)CC[C@H]1CCNc1ccnc2ccc(OC)cc12 [TCMDC-139204] | 3 | 1.08 µM | 62 nM | 3400 nM |  | 
CCCCCCCCN1CCN(CCCCCCNc2c3ccccc3nc3ccccc23)CC1 [TCMDC-138015] | 12 | 0.25 µM | 162 nM | 3100 nM |  | 
COc1cccc(-c2csc(C(=O)NCC3CCN(Cc4ccc(C(C)(C)C)cc4)C3)c2)c1 (centres unmarked) [TCMDC-134447] | 41 | 0.23 µM | 1180 nM | 9500 nM |  | 
N=C(NCCCCC1CCCCC1)c1cccc(C(=N)NCCCCC2CCCCC2)n1 [TCMDC-137452] | 7 | 0.22 µM | 395 nM | 1600 nM |  | 
Fc1ccc2c(NN=Cc3ccccc3)ccnc2c1 [TCMDC-142100] |  |  |  |  | 16.3% | % Inhibition ([1]; P. falciparum gametocytes): 16%
COc1ccc2c(NN=CC=Cc3ccccc3)cc(C)nc2c1 [TCMDC-142096] |  |  |  |  | 34% | % Inhibition ([1]; P. falciparum gametocytes): 34%
O=[N+]([O-])c1cccc(/C=N/Nc2ccnc3cc(F)ccc23)c1 [TCMDC-142098] |  |  |  |  | 42.1% | % Inhibition ([1]; P. falciparum gametocytes): 42%
COc1ccc2nc3cc(Cl)ccc3c(NCCCCN3CCNCC3)c2c1 [TCMDC-137578] | 7.58 | 0.66 µM | 183 nM | 5000 nM |  | 
Cl.c1ccc2c(NCCCCCCCCCNc3c4ccccc4nc4ccccc34)c3ccccc3nc2c1 [TCMDC-124286] | 4 |  | 298 nM |  |  | IC50 [1, 7]: 1.5 µM; IC50 [1, 6]: 1.5 µM; IC50 [3]: 6100 nM
COc1ccc2c(c1)CC(C)(C)NC2CCCCCCCCC1NC(C)(C)Cc2cc(OC)ccc21 (centres unmarked) [TCMDC-137935] | 7 | 0.79 µM | 1300 nM | 5320 nM |  | 
CC(C)(C)c1ccc(CN2CCC(CNC(=O)c3cc(-c4ccccc4F)cs3)C2)cc1 (centres unmarked) [TCMDC-134443] | 22 | 0.34 µM | 564 nM | 7400 nM |  | 
CC(C)(C)c1ccc(CN2CCC(CNC(=O)c3cc(-c4ccccc4C(F)(F)F)cs3)C2)cc1 (centres unmarked) [TCMDC-134441] | 21 | 0.31 µM | 1240 nM | 6400 nM |  | IC50 [1, 6]: 0.305 µM

SMILES | Ratio IC50 HepG2/IC50 P. falciparum [1] | IC50 [1, 5] | IC50 [2] | IC50 at 48 h [3] | inhibition at 5 µM [4] | further results
FC(F)(F)c1ccc2[nH]c(-c3ccc(-c4ccc(CNCCN5CCNCC5)cc4)s3)nc2c1 [TCMDC-132862] | 5.37 |  | 910 nM | 6900 nM |  | IC50 [1, 7]: 1.29 µM; IC50 ([1]; Plasmodium falciparum, read-out: IC50 sexual): 1.28 µM; %_Inh ([1]; gametocytes, primary screen at 5 μM (S10 Table, MCSI analogs)): 105.547%
COc1cc(NCCCNCc2cn(Cc3cc(Br)cc(Br)c3)c3ccccc23)nc2ccccc12 [TCMDC-140677] | 10 | 0.59 µM | 185 nM | 6130 nM |  | 
CC(C)c1ccc(CN2CCC(CNC(=O)c3cc(-c4cccc(F)c4)cs3)C2)cc1 (centres unmarked) [TCMDC-134437] | 12 | 0.45 µM | 1660 nM | 5300 nM |  | IC50 [1, 6]: 0.455 µM
S=C(NN=Cc1ccccn1)Nc1ccc(Cl)c(Cl)c1 [TCMDC-125522] | 130 | 0.07 µM | 768 nM | 9100 nM |  | 
CC(C)(C)c1ccc(CN2CCC(CNC(=O)c3cc(-c4cccc(C(F)(F)F)c4)cs3)C2)cc1 (centres unmarked) [TCMDC-134442] | 12 | 0.42 µM | 1030 nM | 4900 nM |  | 
Fc1ccc2c(NN=Cc3ccc(Cl)cc3)ccnc2c1 [TCMDC-142097] |  |  |  |  | 61.1% | % Inhibition ([1]; P. falciparum gametocytes): 61%
COc1cc2nc(NCc3cccc(CNC(=O)c4ccc(-c5ccc(C(C)=O)cc5)cc4)c3)nc(N)c2cc1OC.O=C(O)C(F)(F)F [TCMDC-138177] | 5 | 2 µM | 118 nM | 9500 nM |  | IC50 [1, 6]: 2 µM
COc1ccc(CCNc2nc(NCc3ccccc3)c3cc(OC)c(OC)cc3n2)cc1OC [TCMDC-132017] | 0.818 | 5.6 µM | 326 nM | 4580 nM |  | 
Nc1cc(/C=C/c2ccc([N+](=O)[O-])s2)nc2ccccc12 [TCMDC-142296] | 13 |  | 760 nM |  | 111% | IC50 [1, 8]: 0.6 µM; IC50 [1, 6]: 0.595 µM; IC50 (HepG2 cells): 7600 nM
CC(C)(C)c1ccc(CN2CCC(CNC(=O)c3cc(-c4ccccc4Cl)cs3)C2)cc1 (centres unmarked) [TCMDC-134445] | 12 | 0.69 µM | 856 nM | 8300 nM |  | 
Clc1ccc(C=NNc2ccnc3ccccc23)cc1 [TCMDC-142099] |  |  |  |  | -69.1% | % Inhibition ([1]; P. falciparum gametocytes): -69%
c1ccc(CN2CCN(CCCCNc3c4ccccc4nc4ccccc34)CC2)cc1 [TCMDC-138009] | 12 | 0.79 µM | 117 nM | 9920 nM |  | IC50 [1, 6]: 0.795 µM
O=c1c(NCCCN(Cc2ccc(F)cc2)c2ccccn2)c(NCc2cccnc2)c1=O [TCMDC-142311] |  |  |  |  | 48% | 
COc1ccc2ccccc2c1C=NNc1ccnc2ccc(F)cc12 [TCMDC-142237] |  |  |  |  | -11.1% | 
CCN(CC)CC(O)c1cc(-c2ccc(OC)cc2)nc2cc(Cl)ccc12 (centres unmarked) [TCMDC-142222] |  |  |  |  | -13% | 
c1ccc(COc2ccnc(NCCCOc3cccc(CN4CCCCC4)c3)c2)cc1 [TCMDC-142314] |  |  |  |  | 40% | 
Nc1c(I)cc(C(=O)Nc2ccc3nc4c(c(N)c3c2)CCCC4)cc1I [TCMDC-142289] | 20 |  | 143 nM |  | 108% | IC50 [1, 8]: 0.41 µM; IC50 (HepG2 cells): 8030 nM
Fc1ccccc1C=NNc1ccnc2ccc(C(F)(F)F)cc12 [TCMDC-142104] |  |  |  |  | -68.2% | 
